According to patent publication US20110046066A1, “INHIBITORS OF IAP” (GENENTECH, INC., priority 2008, published 2011):
“And” between values parts separate entries of the source, which are not always exact repeats. Equal entries are not always repeated.

How the values were obtained:
X-IAP BIR3 = molecular target: T1, X-IAP BIR3 (Homo sapiens, UniProt P98170); experiment: Fluorescence polarization peptide binding assay, X-IAP BIR3; details: for IC50: 0.5 μM X-IAP BIR3, 5 nM AVP-diPhe-FAM probe, one hour incubation; for Ki: determined from the IC50 values (procedure of Keating et al.)
T1 construct: 0.5 μM X-IAP BIR3
T1 sequence (P98170 241-356 limits assumed): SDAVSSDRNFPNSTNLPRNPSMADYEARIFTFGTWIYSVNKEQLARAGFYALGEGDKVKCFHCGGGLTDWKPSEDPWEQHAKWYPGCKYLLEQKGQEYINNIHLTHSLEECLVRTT
Method: (§1) Polarization experiments were performed on an Analyst HT 96-384 reader (Molecular Devices Corp.) in order to determine dissociation constants (Kd) between IAP protein BIR domains and the fluorescent probe. Samples for fluorescence polarization affinity experiments were prepared by addition of serial dilutions of IAP BIR domains (C-IAP1 BIR3, C-IAP-2 BIR3, ML/X-IAP chimera MLXBIR3SG and X-IAP BIR3) in polarization buffer (50 mM Tris [pH 7.2], 120 mM NaCl, 1% bovine globulins 5 mM DTT and 0.05% octylglucoside) to 5-carboxyflourescein-conjugated AVPdi-Phe-NH2 (AVP-diPhe-FAM) at 5 nM final concentration.
(§2) The reactions were read after an incubation time of 1 hour at room temperature with standard cut-off filters for the fluorescein fluorophore (λex=485 nm; λem=530 nm) in 384-well black plates (Molecular Devices Corp.). Fluorescence polarization values were plotted as a function of the protein concentration, and the effective concentration 50 (EC50) values were obtained by fitting the data to a 4-parameter equation using Kaleidagraph software (Synergy software, Reading, Pa.). The apparent Kd values were determined from the EC50 values. Inhibition Constants (Ki values) for the antagonists were determined by the addition of 0.06 μM MLXBIR3SG, 0.5 μM X-IAP BIR3, 0.2 μM C-IAP1 BIR3 or 0.4 μM C-IAP-2 BIR3 to wells containing 5 nM of the AVP-diPhe-FAM probe as well as 1:3 serial dilutions of antagonist compounds starting at a concentration of 200 μM in the polarization buffer. Samples were read after an incubation time of one hour. Fluorescence polarization values were plotted as a function of the antagonist concentration, and the IC50 values were obtained by fitting the data to a 4-parameter equation using Kaleidagraph software (Synergy software, Reading, Pa.). Ki values for the antagonists were determined from the IC50 values according to the procedure of Keating, S. M., Marsters, J, Beresini, M., Ladner, C., Zioncheck, K., Clark, K., Arellano, F., and Bodary, S. (2000) in Proceedings of SPIE: In Vitro Diagnostic Instrumentation (Cohn, G. E., Ed.) pp 128-137, Bellingham, Wash. […] All values are micromolar.

[1] = molecular target: T2, ML/X-IAP chimera MLXBIR3SG (Homo sapiens, UniProt Q96CA5, S150G); experiment: Fluorescence polarization peptide binding assay, MLXBIR3SG; details: for IC50: 0.06 μM MLXBIR3SG, 5 nM AVP-diPhe-FAM probe, one hour incubation; for Ki: determined from the IC50 values (procedure of Keating et al.)
T2 sequence (Q96CA5 with tags, fused parts or gaps S150G): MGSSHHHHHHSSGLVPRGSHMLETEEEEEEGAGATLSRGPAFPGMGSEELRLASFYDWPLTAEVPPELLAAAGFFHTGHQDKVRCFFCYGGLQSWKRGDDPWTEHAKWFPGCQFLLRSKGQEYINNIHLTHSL
Method: The following fluorescence polarization experiments used a chimeric BIR domain referred to as MLXBIR3SG in which 11 of 110 residues correspond to those found in XIAP BIR3, while the remainder correspond to ML-IAP BIR. […] The improved caspase-9 inhibition of the chimeric BIR domain MLXBIR3SG has been correlated with increased inhibition of doxorubicin-induced apoptosis when transfected into MCF7 cells.
as §1, §2

C-IAP1 BIR3 = molecular target: T3, C-IAP1 BIR3 (Homo sapiens, UniProt Q13490); experiment: Fluorescence polarization peptide binding assay, C-IAP1 BIR3; details: for IC50: 0.2 μM C-IAP1 BIR3, 5 nM AVP-diPhe-FAM probe, one hour incubation; for Ki: determined from the IC50 values (procedure of Keating et al.)
T3 construct: 0.2 μM C-IAP1 BIR3
T3 sequence (Q13490 253-363 limits assumed): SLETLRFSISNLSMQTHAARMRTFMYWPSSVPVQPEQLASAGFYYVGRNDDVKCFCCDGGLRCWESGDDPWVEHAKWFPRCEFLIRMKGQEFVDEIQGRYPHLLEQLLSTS
Method: as §1, §2

C-IAP2 BIR3 = molecular target: T4, C-IAP2 BIR3 (Homo sapiens, UniProt Q13489); experiment: Fluorescence polarization peptide binding assay, C-IAP2 BIR3; details: for IC50: 0.4 μM C-IAP-2 BIR3, 5 nM AVP-diPhe-FAM probe, one hour incubation; for Ki: determined from the IC50 values (procedure of Keating et al.)
T4 construct: 0.4 μM C-IAP-2 BIR3
T4 sequence (Q13489 238-349 limits assumed): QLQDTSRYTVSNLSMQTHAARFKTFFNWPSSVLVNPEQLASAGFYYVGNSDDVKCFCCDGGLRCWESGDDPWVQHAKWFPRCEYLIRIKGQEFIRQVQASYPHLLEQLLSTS
Method: as §1, §2

IC50 (X-IAP BIR3)	Ki (X-IAP BIR3)	IC50 [1]	Ki [1]	IC50 (C-IAP1 BIR3)	Ki (C-IAP1 BIR3)	IC50 (C-IAP2 BIR3)	Ki (C-IAP2 BIR3)	SMILES
> 200000 nM	> 35000 nM	> 200000 nM	> 46000 nM	14200 nM	3120 nM	27000 nM	4570 nM	CN[C@@H](C)C(=O)N[C@H](C(=O)N(C)[C@H](C(=O)Nc1ccccc1-c1ncccn1)C(C)C)C1CCCCC1 [Compound 7]
> 200000 nM	> 35000 nM	~60000 nM	13700 nM	13500 nM	2090 nM	34500 nM	7440 nM	CN[C@@H](C)C(=O)N[C@H](C(=O)N[C@H](C(=O)Nc1sc(-c2cnccn2)nc1-c1ccccc1)C(C)(C)C)c1ccccc1 [Compound 11]
36200 nM	6440 nM	2400 nM	547 nM	700 nM	108 nM	1130 nM	244 nM	CN[C@@H](C)C(=O)N[C@H](C(=O)N[C@H](C(=O)Nc1snnc1-c1ccccc1)C(C)(C)S(C)(=O)=O)C1CCCCC1 [Compound 10]
> 200000 nM	> 35000 nM	899 nM	205 nM	3120 nM	483 nM	1940 nM	419 nM	CN[C@@H](C)C(=O)N[C@H](C(=O)N[C@H](C(=O)NCC(c1ccccc1)c1ccccc1)C(F)(F)F)C1CCCCC1 [Compound 8]
21700 nM	3870 nM	249 nM	57 nM	133 nM	21 nM	202 nM	44 nM	CN[C@@H](C)C(=O)N[C@H](C(=O)N[C@H](C(=O)Nc1snnc1-c1ccccc1)C(C)(C)SC)C1CCCCC1 [Compound 20, (R)-2-((S)-2-cyclohexyl-2-((S)-2-(methylamino)propanamido)-acetamido)-3-methyl-3-(methylthio)-N-(4-phenyl-1,2,3-thiadiazol-5-yl)butanamide]
22400 nM	3990 nM	407 nM	93 nM	202 nM	31 nM	342 nM	74 nM	CN[C@@H](C)C(=O)N[C@H](C(=O)N[C@H](C(=O)Nc1snnc1-c1ccccc1)C(C)(C)SCNC(C)=O)C1CCCCC1 [Compound 21]
14000 nM	2490 nM	304 nM	69 nM	155 nM	24 nM	276 nM	60 nM	CN[C@@H](C)C(=O)N[C@H](C(=O)N(C)[C@H](C(=O)Nc1snnc1-c1ccccc1)C(C)(C)SC)C1CCCCC1 [Compound 23]
26400 nM	4700 nM	250 nM	57 nM	140 nM	21.7 nM	226 nM	48.8 nM	CN[C@@H](C)C(=O)N[C@H](C(=O)N(C)[C@H](C(=O)Nc1snnc1-c1ccccc1)C(C)C)C1CCCCC1 [Compound 14]
> 200000 nM	> 35000 nM	8880 nM	2020 nM	2290 nM	354 nM	2450 nM	530 nM	CN[C@@H](C)C(=O)N[C@H](C(=O)N[C@H](c1nc(-c2ccc(F)c3ccccc23)cs1)C(C)(C)SCc1ccc(OC)cc1)C1CCCCC1 [Compound 22]
11100 nM	1980 nM	279 nM	64 nM	192 nM	30 nM	256 nM	55 nM	CN[C@@H](C)C(=O)N[C@H](C(=O)N[C@H](C(=O)Nc1snnc1-c1ccccc1)C(C)(C)OC)C1CCCCC1 [Compound 2]
> 200000 nM	> 35000 nM	4540 nM	1030 nM	738 nM	114 nM	1320 nM	286 nM	CN[C@@H](C)C(=O)N[C@H](C(=O)N[C@H](C(=O)Nc1cc(C)nn1-c1ccccc1)C(C)(C)SCc1ccc(OC)cc1)C1CCCCC1 [Compound 16]
> 200000 nM	> 35000 nM	5160 nM	1180 nM	6410 nM	993 nM	6530 nM	1410 nM	CN[C@@H](C)C(=O)N[C@H](C(=O)N[C@H](C(=O)NCC(c1ccccc1)c1ccccc1)C(C)(C)SCc1ccc(OC)cc1)C1CCCCC1 [Compound 17]
8840 nM	1570 nM	248 nM	57 nM	131 nM	20 nM	222 nM	48 nM	CN[C@@H](C)C(=O)N[C@H](C(=O)N[C@H](C(=O)Nc1snnc1-c1ccccc1)C(C)(C)F)C1CCCCC1 [Compound 6]
9940 nM and 14800 nM	1770 nM and 2630 nM	189 nM and 181 nM	43 nM and 41 nM	283 nM and 165 nM	44 nM and 26 nM	468 nM and 225 nM	101 nM and 49 nM	CN[C@@H](C)C(=O)N[C@H](C(=O)N[C@H](C(=O)Nc1snnc1-c1ccccc1)C(C)(C)C)C1CCCCC1 [Compound 1]
> 200000 nM	> 35000 nM	–	–	5840 nM and 3180 nM	905 nM and 492 nM	–	–	CN[C@@H](C)C(=O)N[C@H](C(=O)N[C@H](C(=O)NCC(c1ccccc1)c1ccccc1)C(C)(C)OC)C1CCOCC1 [Compound 9]
~100000 nM	17800 nM	543 nM	124 nM	289 nM	45 nM	341 nM	74 nM	CN[C@@H](C)C(=O)N[C@H](C(=O)N[C@H](C(=O)Nc1snnc1-c1ccccc1)C(C)(C)SCc1ccc(OC)cc1)C1CCCCC1 [Compound 19]
11200 nM	1990 nM	178 nM	41 nM	245 nM	38 nM	272 nM	59 nM	CN[C@@H](C)C(=O)N[C@H](C(=O)N[C@H](C(=O)Nc1snnc1-c1ccccc1)C1(C)CCOCC1)C1CCCCC1 [Compound 3]
> 200000 nM	> 35000 nM	2480 nM	564 nM	2550 nM	395 nM	4340 nM	937 nM	CN[C@@H](C)C(=O)N[C@H](C(=O)N[C@H](C(=O)NCC(c1ccccc1)c1ccccc1)C(C)(C)SCNC(C)=O)C1CCCCC1 [Compound 18]
> 200000 nM	> 35000 nM	4080 nM	929 nM	1320 nM	205 nM	1320 nM	285 nM	CN[C@@H](C)C(=O)N[C@H](C(=O)N(C)[C@H](C(=O)Nc1snnc1-c1ccccc1)C(C)(C)C)C1CCCCC1 [Compound 24, (S)-2-((S)-2-cyclohexyl-N-methyl-2-((S)-2-(methylamino)propan-amido)acetamido)-3,3-dimethyl-N-(4-phenyl-1,2,3-thiadiazol-5-yl)butanamide]
> 200000 nM	> 35000 nM	2540 nM	579 nM	6880 nM	1060 nM	19100 nM	4130 nM	CN[C@@H](C)C(=O)N[C@H](C(=O)N[C@H](C(=O)NCC(c1ccccc1)c1ccccc1)C(C)(C)O)C(C)C [Compound 12]
> 200000 nM	> 35000 nM	2900 nM	661 nM	3640 nM	564 nM	7570 nM	1630 nM	CN[C@H](C)C(=O)N[C@@H](C(=O)N[C@@H](C(=O)NCC(c1ccccc1)c1ccccc1)C(C)(C)C)C1CCCCC1 [Compound 15]
